# Experimental data from patent US20260070945A1, “MACROCYCLIC IMMUNOMODULATORS” (Bristol-Myers Squibb Company, priority 2022, published 2026).
# *1 amine or outer side, *2 acyl side, *3 side chain or, on linkers, in order; H or OH if unused. Where a SMILES comes first, the peptide text is derived from it. Bridges are numbered along the chain shown (N, C = ends). [ ]: non-standard residue; d: D form. The star is where a group is joined. Phe(4-guanidino) = N=C(N)Nc1ccc(C[C@H](N)C(=O)O)cc1; Bip = N[C@@H](Cc1ccc(-c2ccccc2)cc1)C(=O)O; Phe(4-NH2) = Nc1ccc(C[C@H](N)C(=O)O)cc1; Phe(3-Me) = Cc1cccc(C[C@H](N)C(=O)O)c1; NH(CH2)8CO = O=C(CCCCCCCCN[*:1])[*:2]; Cha = N[C@@H](CC1CCCCC1)C(=O)O; 12Ado = NCCCCCCCCCCCC(=O)O; Carboxymethyl = O=C(O)C*; NMeA = CN[C@@H](C)C(=O)O; Orn = NCCC[C@H](N)C(=O)O; Aun = NCCCCCCCCCCC(=O)O; Dab = NCC[C@H](N)C(=O)O; AEEA = NCCOCCOCC(=O)O
# Target: T1, PD-1/PD-L1 interaction (PE-labeled human PD-L1-Ig binding to Jurkat cell line over-expressing human PD-1) (Homo sapiens, UniProt Q15116)
# T1 construct: expressed in transfected cells; host or cells: Jurkat
# Assay: Jurkat-PD-1 Cell Binding High-Content Screening Assay (CBA)
# Conditions: PE-labeled PD-L1-Ig 20 nM final, Jurkat-hPD-1 cells; read-out: Jurkat HPD1 PDL1 IC50
# Procedure, shortened: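 Jurkat cells overexpressing human PD-1 (8×10^3/well, DMEM + 10% FCS) preincubated with compound 2 h at 37 °C, then PE-labelled human PD-L1-Ig (20 nM final) for 1 h. Cells fixed in paraformaldehyde with Hoechst 33342; bound PD-L1 quantified by high-content imaging.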
# T1 sequence (Q15116 25-288): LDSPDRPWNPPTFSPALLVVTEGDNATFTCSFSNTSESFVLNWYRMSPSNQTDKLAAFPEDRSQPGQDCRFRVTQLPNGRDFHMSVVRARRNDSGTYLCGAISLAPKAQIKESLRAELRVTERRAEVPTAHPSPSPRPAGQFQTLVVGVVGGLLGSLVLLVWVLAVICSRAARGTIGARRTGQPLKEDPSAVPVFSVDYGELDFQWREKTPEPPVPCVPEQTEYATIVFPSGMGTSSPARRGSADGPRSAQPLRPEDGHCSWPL
row,SMILES,IC50
1,Cc1cccc(C[C@@H]2NC(=O)[C@H](CC(=O)O)NC(=O)[C@H](Cc3ccc(OCC(=O)O)cc3)NC(=O)[C@H]([C@@H](C)O)NC(=O)CSC[C@@H](C(=O)N[C@@H](CCN)C(=O)NCCCCCCCCCCCC(=O)NCCCCCCCCCCC(=O)O)NC(=O)[C@H](CCC(=O)O)NC(=O)[C@H](C(C)C)NC(=O)[C@H](CC3CCCCC3)NC(=O)[C@H](CCN)NC(=O)[C@@H](CC(C)C)NC(=O)[C@H](C)N(C)C(=O)[C@H](Cc3ccc(OCC(=O)O)cc3)NC(=O)[C@H](Cc3ccc(-c4ccccc4)cc3)NC(=O)[C@H](Cc3ccc(OCC(=O)O)cc3)NC2=O)c1 [Example 2679] ({CH2CO}-TY(Carboxymethyl)D[Phe(3-Me)]Y(Carboxymethyl)[Bip]Y(Carboxymethyl)[NMeA][dL][Dab][Cha]VEC[Dab][12Ado][Aun]-OH; thioether N-14),12.2 nM
2,Cc1cccc(C[C@@H]2NC(=O)[C@H](CC(=O)O)NC(=O)[C@H](Cc3ccc(OCC(=O)O)cc3)NC(=O)[C@H]([C@@H](C)O)NC(=O)CSC[C@@H](C(=O)N[C@@H](CCN)C(=O)NCCCCCCCCCCCC(=O)NCCCCCCCCCCCC(=O)O)NC(=O)[C@H](CCC(=O)O)NC(=O)[C@H](C(C)C)NC(=O)[C@H](CC3CCCCC3)NC(=O)[C@H](CCN)NC(=O)[C@@H](CC(C)C)NC(=O)[C@H](C)N(C)C(=O)[C@H](Cc3ccc(OCC(=O)O)cc3)NC(=O)[C@H](Cc3ccc(-c4ccccc4)cc3)NC(=O)[C@H](Cc3ccc(OCC(=O)O)cc3)NC2=O)c1 [Example 2682] ({CH2CO}-TY(Carboxymethyl)D[Phe(3-Me)]Y(Carboxymethyl)[Bip]Y(Carboxymethyl)[NMeA][dL][Dab][Cha]VEC[Dab][12Ado][12Ado]-OH; thioether N-14),58 nM
3,Cc1cccc(C[C@@H]2NC(=O)[C@H](CC(=O)O)NC(=O)[C@H](Cc3ccc(NC(=N)N)cc3)NC(=O)[C@H]([C@@H](C)O)NC(=O)CSC[C@@H](C(=O)N[C@@H](CCN)C(=O)NCCCCCCCCC(=O)NCCCCCCCCCCC(=O)O)NC(=O)[C@H](CCCN)NC(=O)[C@H](C(C)C)NC(=O)[C@H](CC3CCCCC3)NC(=O)[C@H](CCN)NC(=O)[C@@H](CC(C)C)NC(=O)[C@H](C)N(C)C(=O)[C@H](Cc3ccc(NC(=N)N)cc3)NC(=O)[C@H](Cc3ccc(-c4ccccc4)cc3)NC(=O)[C@H](Cc3ccc(NC(=N)N)cc3)NC2=O)c1 [Example 2684] ({CH2CO}-T[Phe(4-guanidino)]D[Phe(3-Me)][Phe(4-guanidino)][Bip][Phe(4-guanidino)][NMeA][dL][Dab][Cha]V[Orn]C[Dab][NH(CH2)8CO][Aun]-OH; thioether N-14),4.4 nM
4,Cc1cccc(C[C@@H]2NC(=O)[C@H](CC(=O)O)NC(=O)[C@H](Cc3ccc(OCC(=O)O)cc3)NC(=O)[C@H]([C@@H](C)O)NC(=O)CSC[C@@H](C(=O)N[C@@H](CCC(=O)O)C(=O)NCCOCCOCC(=O)NCCCCCCCCCCCC(=O)O)NC(=O)CNC(=O)[C@H](C(C)C)NC(=O)[C@H](CC3CCCCC3)NC(=O)[C@@H](CCC(=O)O)NC(=O)[C@@H](CC(C)C)NC(=O)[C@H](C)N(C)C(=O)[C@H](Cc3ccc(OCC(=O)O)cc3)NC(=O)[C@H](Cc3ccc(-c4ccccc4)cc3)NC(=O)[C@H](Cc3ccc(OCC(=O)O)cc3)NC2=O)c1 [Example 2686] ({CH2CO}-TY(Carboxymethyl)D[Phe(3-Me)]Y(Carboxymethyl)[Bip]Y(Carboxymethyl)[NMeA][dL][dE][Cha]VGCE[AEEA][12Ado]-OH; thioether N-14),257 nM
5,Cc1cccc(C[C@@H]2NC(=O)[C@H](CC(=O)O)NC(=O)[C@H](Cc3ccc(OCC(=O)O)cc3)NC(=O)[C@H]([C@@H](C)O)NC(=O)CSC[C@@H](C(=O)NCC(=O)NCCOCCOCC(=O)NCCCCCCCCCCCC(=O)O)NC(=O)CNC(=O)[C@H](C(C)C)NC(=O)[C@H](CC3CCCCC3)NC(=O)[C@@H](CCC(=O)O)NC(=O)[C@@H](CC(C)C)NC(=O)[C@H](C)N(C)C(=O)[C@H](Cc3ccc(OCC(=O)O)cc3)NC(=O)[C@H](Cc3ccc(-c4ccccc4)cc3)NC(=O)[C@H](Cc3ccc(OCC(=O)O)cc3)NC2=O)c1 [Example 2688] ({CH2CO}-TY(Carboxymethyl)D[Phe(3-Me)]Y(Carboxymethyl)[Bip]Y(Carboxymethyl)[NMeA][dL][dE][Cha]VGCG[AEEA][12Ado]-OH; thioether N-14),54.5 nM
6,Cc1cccc(C[C@@H]2NC(=O)[C@H](CC(=O)O)NC(=O)[C@H](Cc3ccc(N)cc3)NC(=O)[C@H]([C@@H](C)O)NC(=O)CSC[C@@H](C(=O)N[C@@H](CCN)C(=O)NCCCCCCCCC(=O)NCCCCCCCCCCC(=O)O)NC(=O)[C@H](CCCN)NC(=O)[C@H](C(C)C)NC(=O)[C@H](CC3CCCCC3)NC(=O)[C@H](CCN)NC(=O)[C@@H](CC(C)C)NC(=O)[C@H](C)N(C)C(=O)[C@H](Cc3ccc(N)cc3)NC(=O)[C@H](Cc3ccc(-c4ccccc4)cc3)NC(=O)[C@H](Cc3ccc(N)cc3)NC2=O)c1 [Example 2689] ({CH2CO}-T[Phe(4-NH2)]D[Phe(3-Me)][Phe(4-NH2)][Bip][Phe(4-NH2)][NMeA][dL][Dab][Cha]V[Orn]C[Dab][NH(CH2)8CO][Aun]-OH; thioether N-14),6.1 nM
